Test results reported in ChEMBL document CHEMBL4725370, “Discovery of Proteolysis-Targeting Chimera Molecules that Selectively Degrade the IRAK3 Pseudokinase” (J Med Chem, 2020).
Activity calls are given as the source filed them. No cut-off for these calls is given here.

Legend:
[1] = target: CDK8/Cyclin C (Homo sapiens) (UniProt P49336+P24863); experiment: Inhibition of CDK8/cyclin C (unknown origin) at 0.1 uM relative to control; type: protein-complex assay
[2] = target: Cyclin-dependent kinase 8 (Homo sapiens, UniProt P49336); experiment: Displacement of polymer supported probe 25 binding to CDK8 in human THP-1 cell lysates preincubated for 45 mins under shaking condition followed by probe addition and measured after 30 mins by mass spectrometry based chemoproteomic analysis; type: subcellular; details: read-out: Kd(app)
Chain of Cyclin-dependent kinase 8 (P49336 whole entry): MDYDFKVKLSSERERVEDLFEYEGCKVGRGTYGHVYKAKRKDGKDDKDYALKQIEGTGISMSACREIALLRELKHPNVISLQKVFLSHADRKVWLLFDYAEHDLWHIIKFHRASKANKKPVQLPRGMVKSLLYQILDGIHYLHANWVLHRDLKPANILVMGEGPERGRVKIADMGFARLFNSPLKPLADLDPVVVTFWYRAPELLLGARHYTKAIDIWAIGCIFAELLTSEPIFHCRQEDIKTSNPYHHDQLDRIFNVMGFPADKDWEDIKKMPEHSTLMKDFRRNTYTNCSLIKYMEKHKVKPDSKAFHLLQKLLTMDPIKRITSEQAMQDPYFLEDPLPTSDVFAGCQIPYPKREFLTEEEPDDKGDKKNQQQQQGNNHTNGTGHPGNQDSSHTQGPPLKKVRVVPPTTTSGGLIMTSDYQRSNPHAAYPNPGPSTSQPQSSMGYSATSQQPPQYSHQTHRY

[3] = target: T1, Interleukin-1 receptor-associated kinase 3 (Homo sapiens, UniProt Q9Y616); experiment: Displacement of polymer supported probe 25 binding to IRAK3 in human THP-1 cell lysates preincubated for 45 mins under shaking condition followed by probe addition and measured after 30 mins by mass spectrometry based chemoproteomic analysis; type: subcellular; details: read-out: Kd(app)
T1 sequence (Q9Y616 whole entry): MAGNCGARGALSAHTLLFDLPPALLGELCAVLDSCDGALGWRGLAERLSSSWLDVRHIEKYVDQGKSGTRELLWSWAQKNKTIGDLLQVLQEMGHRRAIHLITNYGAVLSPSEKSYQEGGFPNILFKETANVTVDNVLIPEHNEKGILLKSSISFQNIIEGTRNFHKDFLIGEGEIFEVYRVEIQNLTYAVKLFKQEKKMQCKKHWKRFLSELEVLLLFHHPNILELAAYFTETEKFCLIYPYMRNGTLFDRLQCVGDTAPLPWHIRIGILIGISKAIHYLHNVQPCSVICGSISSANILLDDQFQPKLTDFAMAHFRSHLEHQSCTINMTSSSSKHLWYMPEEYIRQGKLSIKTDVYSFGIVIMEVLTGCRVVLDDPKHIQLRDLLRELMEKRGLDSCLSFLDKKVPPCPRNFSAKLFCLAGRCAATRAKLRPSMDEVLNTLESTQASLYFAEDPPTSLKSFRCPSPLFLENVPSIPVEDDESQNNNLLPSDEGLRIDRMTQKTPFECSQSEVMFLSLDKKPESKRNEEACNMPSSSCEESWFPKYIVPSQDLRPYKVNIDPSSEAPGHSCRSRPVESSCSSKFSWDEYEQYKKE

[4] = target: Cyclin-dependent kinase 19 (Homo sapiens, UniProt Q9BWU1); experiment: Displacement of polymer supported probe 25 binding to CDK11 in human THP-1 cell lysates preincubated for 45 mins under shaking condition followed by probe addition and measured after 30 mins by mass spectrometry based chemoproteomic analysis; type: subcellular; details: read-out: Kd(app)
Chain of Cyclin-dependent kinase 19 (Q9BWU1 whole entry): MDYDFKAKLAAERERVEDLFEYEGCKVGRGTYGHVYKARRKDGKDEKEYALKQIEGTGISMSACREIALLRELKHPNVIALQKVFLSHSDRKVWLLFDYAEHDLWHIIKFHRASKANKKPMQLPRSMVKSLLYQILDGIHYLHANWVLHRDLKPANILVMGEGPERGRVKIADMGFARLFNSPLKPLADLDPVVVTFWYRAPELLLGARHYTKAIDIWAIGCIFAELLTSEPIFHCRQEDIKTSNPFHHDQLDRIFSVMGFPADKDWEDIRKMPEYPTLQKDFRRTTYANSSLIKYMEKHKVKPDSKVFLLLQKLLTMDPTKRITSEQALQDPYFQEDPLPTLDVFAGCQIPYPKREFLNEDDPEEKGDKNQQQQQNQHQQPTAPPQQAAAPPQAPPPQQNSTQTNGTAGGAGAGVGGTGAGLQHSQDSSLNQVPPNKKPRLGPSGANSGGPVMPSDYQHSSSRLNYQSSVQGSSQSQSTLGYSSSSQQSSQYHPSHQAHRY

[5] = target: T2, Protein cereblon/Interleukin-1 receptor-associated kinase 3 (Homo sapiens, UniProt Q9Y616+Q96SW2); experiment: Protac activity at CRBN/IRAK3 in human PBMC derived primary macrophages assessed as induction of IRAK3 degradation at 0.3 uM preincubated for 8 hrs followed by LPS-stimulation and measured after 8 to 32 hrs by Western blot analysis; type: tissue-based; details: Primary macrophage
Target sequence in this assay (Q96SW2 whole entry, looked up, one chain of several): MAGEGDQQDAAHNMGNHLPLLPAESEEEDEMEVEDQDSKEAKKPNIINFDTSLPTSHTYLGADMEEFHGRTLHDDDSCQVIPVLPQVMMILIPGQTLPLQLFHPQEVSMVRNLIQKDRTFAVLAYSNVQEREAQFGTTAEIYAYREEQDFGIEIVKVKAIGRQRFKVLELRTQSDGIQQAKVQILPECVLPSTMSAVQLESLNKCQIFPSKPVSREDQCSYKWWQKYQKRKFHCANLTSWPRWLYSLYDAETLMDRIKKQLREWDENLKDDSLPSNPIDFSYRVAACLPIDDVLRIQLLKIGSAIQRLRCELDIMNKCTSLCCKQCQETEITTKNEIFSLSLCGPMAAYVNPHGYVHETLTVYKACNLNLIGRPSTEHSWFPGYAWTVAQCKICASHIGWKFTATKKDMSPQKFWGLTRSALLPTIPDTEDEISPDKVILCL

[6] = target: T1, Interleukin-1 receptor-associated kinase 3; experiment: Inhibition of kinase tracer 236 binding to recombinant human full-length GST-tagged IRAK3 expressed in insect cells by Lanthascreen Eu kinase binding assay
[7] = target: T3, Interleukin-1 receptor-associated kinase 1 (Homo sapiens, UniProt P51617); experiment: Displacement of polymer supported probe 25 binding to IRAK1 in human THP-1 cell lysates preincubated for 45 mins under shaking condition followed by probe addition and measured after 30 mins by mass spectrometry based chemoproteomic analysis; type: subcellular; details: read-out: Kd(app)
T3 sequence (P51617 whole entry): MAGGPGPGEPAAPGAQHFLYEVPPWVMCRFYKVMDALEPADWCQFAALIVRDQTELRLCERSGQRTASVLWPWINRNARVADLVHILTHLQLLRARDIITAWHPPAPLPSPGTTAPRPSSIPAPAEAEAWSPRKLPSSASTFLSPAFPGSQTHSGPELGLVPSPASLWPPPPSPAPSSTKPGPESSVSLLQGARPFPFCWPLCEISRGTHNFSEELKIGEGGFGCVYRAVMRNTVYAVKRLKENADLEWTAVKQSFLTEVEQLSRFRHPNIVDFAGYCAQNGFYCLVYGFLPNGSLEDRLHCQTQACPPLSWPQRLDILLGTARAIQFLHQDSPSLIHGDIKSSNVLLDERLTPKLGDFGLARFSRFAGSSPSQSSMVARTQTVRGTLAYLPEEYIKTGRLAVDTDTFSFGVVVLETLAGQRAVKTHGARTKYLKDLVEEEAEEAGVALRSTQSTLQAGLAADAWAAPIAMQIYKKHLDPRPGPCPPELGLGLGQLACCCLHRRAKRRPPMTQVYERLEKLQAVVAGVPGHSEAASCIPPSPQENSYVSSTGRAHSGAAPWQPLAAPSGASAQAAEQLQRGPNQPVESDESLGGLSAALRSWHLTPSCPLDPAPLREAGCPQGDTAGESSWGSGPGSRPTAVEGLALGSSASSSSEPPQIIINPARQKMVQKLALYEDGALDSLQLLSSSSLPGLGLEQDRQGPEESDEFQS

THP-1 [8] = experiment: Selectivity ratio of Kd(app) for displacement of polymer supported probe 25 binding to CDK11 in human THP-1 cell lysates to Kd(app) for displacement of polymer supported probe 25 binding to IRAK3 in human THP-1 cell lysates
[9] = target: T2, Protein cereblon/Interleukin-1 receptor-associated kinase 3; experiment: Protac activity at CRBN/IRAK3 in LPS-induced human THP1 cells assessed as induction of IRAK3 degradation after 16 hrs by Western blot analysis; type: cell-based; details: thp-1
Target sequence in this assay (Q96SW2 whole entry, one chain of several): as the sequence (Q96SW2 whole entry, looked up, one chain of several) above

[10] = target: Cyclin-C/Cyclin-dependent kinase 19 (Homo sapiens) (UniProt Q9BWU1+P24863); experiment: Inhibition of CDK11/cyclin C (unknown origin) at 0.1 uM relative to control; type: protein-complex assay
[11] = target: T2, Protein cereblon/Interleukin-1 receptor-associated kinase 3; experiment: Protac activity at CRBN/IRAK3 in human THP1 cells assessed as induction of IRAK3 degradation at 0.1 uM measured after 6 hrs in presence of IRAK3 ligand cis-1-(4-(4-((5-Isopropylpyrrolo[2,1-f][1,2,4]triazin-4-yl)amino)-cyclohexyl)piperazin-1-yl)ethanone by Western blot analysis; type: cell-based; details: THP-1
Target sequence in this assay (Q96SW2 whole entry, looked up, one chain of several): as above

[12] = target: BDNF/NT-3 growth factors receptor (Homo sapiens) (UniProt Q16620); experiment: Inhibition of NTRK2 (unknown origin) at 0.1 uM relative to control
Chain of BDNF/NT-3 growth factors receptor (Homo sapiens) (Q16620 32-822 limits assumed): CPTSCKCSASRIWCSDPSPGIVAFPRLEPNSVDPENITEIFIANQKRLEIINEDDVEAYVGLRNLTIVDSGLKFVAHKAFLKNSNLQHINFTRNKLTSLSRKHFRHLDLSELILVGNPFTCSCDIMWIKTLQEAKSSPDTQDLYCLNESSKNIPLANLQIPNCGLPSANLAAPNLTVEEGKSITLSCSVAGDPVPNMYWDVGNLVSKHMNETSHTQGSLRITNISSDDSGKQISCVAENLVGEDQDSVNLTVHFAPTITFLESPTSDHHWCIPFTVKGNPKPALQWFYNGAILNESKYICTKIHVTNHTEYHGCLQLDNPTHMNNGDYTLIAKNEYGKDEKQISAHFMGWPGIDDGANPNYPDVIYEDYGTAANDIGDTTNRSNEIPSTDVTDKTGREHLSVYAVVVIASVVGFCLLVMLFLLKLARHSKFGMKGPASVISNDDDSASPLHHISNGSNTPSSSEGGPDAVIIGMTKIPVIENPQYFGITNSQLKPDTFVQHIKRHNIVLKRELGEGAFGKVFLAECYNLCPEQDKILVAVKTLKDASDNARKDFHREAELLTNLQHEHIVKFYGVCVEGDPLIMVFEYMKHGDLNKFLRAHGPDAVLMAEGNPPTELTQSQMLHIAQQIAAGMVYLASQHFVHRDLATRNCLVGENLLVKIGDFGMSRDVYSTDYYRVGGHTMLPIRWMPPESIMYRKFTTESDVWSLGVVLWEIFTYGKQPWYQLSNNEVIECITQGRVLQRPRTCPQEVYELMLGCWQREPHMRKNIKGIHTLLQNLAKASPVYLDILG

[13] = target: Interleukin-1 receptor-associated kinase 3 (Homo sapiens) (UniProt Q9Y616); experiment: Inhibition of IRAK3 (unknown origin) at 0.1 uM relative to control
[14] = target: T3, Interleukin-1 receptor-associated kinase 1; experiment: Inhibition of recombinant human N-terminal GST-tagged IRAK1 (194 to 712 residues) expressed in baculovirus expression system using 5-FAM-KKKVSRSGLYRSPSMPENLNRPR-COOH as substrate measured after 240 mins by mobility shift assay
[15] = target: T2, Protein cereblon/Interleukin-1 receptor-associated kinase 3; experiment: Protac activity at CRBN/IRAK3 in LPS-induced human THP1 cells assessed as induction of IRAK3 degradation at 0.1 uM measured after 6 hrs by HPLC-MS based global proteomic analysis relative to control; type: cell-based; details: THP-1
Target sequence in this assay (Q96SW2 whole entry, looked up, one chain of several): as the sequence (Q96SW2 whole entry, looked up, one chain of several) above

[16] = target: Protein cereblon/Delta(24)-sterol reductase (Homo sapiens) (UniProt Q15392+Q96SW2); experiment: Protac activity at CRBN/DHCR24 in LPS-induced human THP1 cells assessed as induction of DHCR24 degradation at 0.1 uM measured after 6 hrs by HPLC-MS based global proteomic analysis relative to control; type: cell-based; details: THP-1
Chain of Protein cereblon/Delta(24)-sterol reductase (Homo sapiens) (Q15392 whole entry, looked up): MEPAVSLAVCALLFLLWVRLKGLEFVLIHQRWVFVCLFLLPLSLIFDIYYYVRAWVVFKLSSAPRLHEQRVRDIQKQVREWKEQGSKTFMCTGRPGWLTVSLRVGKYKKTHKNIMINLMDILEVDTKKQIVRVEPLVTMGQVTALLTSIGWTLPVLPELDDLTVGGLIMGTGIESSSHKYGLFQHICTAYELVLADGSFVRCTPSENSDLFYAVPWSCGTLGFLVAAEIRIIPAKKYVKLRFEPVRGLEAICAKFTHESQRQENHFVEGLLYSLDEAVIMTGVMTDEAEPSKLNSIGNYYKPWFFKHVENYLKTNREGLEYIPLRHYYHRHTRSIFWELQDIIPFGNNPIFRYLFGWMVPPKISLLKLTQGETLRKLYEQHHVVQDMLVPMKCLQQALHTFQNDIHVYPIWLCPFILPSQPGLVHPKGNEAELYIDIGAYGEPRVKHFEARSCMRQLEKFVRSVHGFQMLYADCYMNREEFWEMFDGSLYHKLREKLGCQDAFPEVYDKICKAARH
Chain of Protein cereblon/Delta(24)-sterol reductase (Homo sapiens) (Q96SW2 whole entry, looked up): as the sequence (Q96SW2 whole entry, looked up, one chain of several) above

THP-1 [17] = experiment: Selectivity ratio of Kd(app) for displacement of polymer supported probe 25 binding to CDK8 in human THP-1 cell lysates to Kd(app) for displacement of polymer supported probe 25 binding to IRAK3 in human THP-1 cell lysates
[18] = target: T2, Protein cereblon/Interleukin-1 receptor-associated kinase 3; experiment: Protac activity at CRBN/IRAK3 in human THP1 cells assessed as induction of IRAK3 degradation at 0.1 uM measured after 6 hrs in presence of NEDD8-activating enzyme inhibitor MLN4924 by Western blot analysis; type: cell-based; details: THP-1
Target sequence in this assay (Q96SW2 whole entry, looked up, one chain of several): as above

[19] = target: NT-3 growth factor receptor (Homo sapiens, UniProt Q16288); experiment: Inhibition of NTRK3 (unknown origin) at 0.1 uM relative to control
Chain of NT-3 growth factor receptor (Q16288 32-839 limits assumed): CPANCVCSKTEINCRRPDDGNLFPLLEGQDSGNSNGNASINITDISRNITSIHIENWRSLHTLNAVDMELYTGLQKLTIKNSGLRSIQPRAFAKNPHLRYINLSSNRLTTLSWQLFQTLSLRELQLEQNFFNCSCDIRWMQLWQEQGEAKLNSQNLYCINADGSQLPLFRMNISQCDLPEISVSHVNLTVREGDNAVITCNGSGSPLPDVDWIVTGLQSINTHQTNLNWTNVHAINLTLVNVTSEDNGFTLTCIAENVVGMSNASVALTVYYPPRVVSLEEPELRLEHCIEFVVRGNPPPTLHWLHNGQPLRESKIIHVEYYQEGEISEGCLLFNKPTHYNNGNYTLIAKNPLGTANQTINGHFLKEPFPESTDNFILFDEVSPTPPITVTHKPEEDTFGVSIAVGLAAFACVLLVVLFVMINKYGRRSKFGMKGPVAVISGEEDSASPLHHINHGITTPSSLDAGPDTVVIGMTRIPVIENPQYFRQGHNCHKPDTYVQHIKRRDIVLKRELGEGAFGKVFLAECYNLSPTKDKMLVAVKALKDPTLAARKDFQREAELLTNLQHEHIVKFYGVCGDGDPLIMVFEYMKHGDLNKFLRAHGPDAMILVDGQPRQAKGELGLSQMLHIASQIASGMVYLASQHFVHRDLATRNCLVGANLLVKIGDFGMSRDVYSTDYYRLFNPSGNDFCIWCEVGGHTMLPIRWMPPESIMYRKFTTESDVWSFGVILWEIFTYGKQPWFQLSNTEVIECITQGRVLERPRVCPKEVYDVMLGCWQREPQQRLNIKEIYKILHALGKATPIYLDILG

[20] = target: T2, Protein cereblon/Interleukin-1 receptor-associated kinase 3; experiment: Protac activity at CRBN/IRAK3 in human PBMC derived primary macrophages assessed as induction of IRAK3 degradation at 0.3 uM measured after 8 to 32 hrs by Western blot analysis; type: tissue-based; details: Primary macrophage, time hrs 8-32
Target sequence in this assay (Q96SW2 whole entry, looked up, one chain of several): as the sequence (Q96SW2 whole entry, looked up, one chain of several) above

[21] = target: T2, Protein cereblon/Interleukin-1 receptor-associated kinase 3; experiment: Protac activity at CRBN/IRAK3 in human THP1 cells assessed as induction of IRAK3 degradation at 0.1 uM preincubated for 16 hrs followed by compound washout and measured after 24 hrs by Western blot analysis; type: cell-based; details: THP-1
Target sequence in this assay (Q96SW2 whole entry, looked up, one chain of several): as above

[22] = target: T2, Protein cereblon/Interleukin-1 receptor-associated kinase 3; experiment: Protac activity at CRBN/IRAK3 in human THP1 cells assessed as induction of IRAK3 degradation at 0.1 uM measured after 6 hrs in presence of proteasome inhibitor MG132 by Western blot analysis; type: cell-based; details: THP-1
THP-1 [23] = experiment: Selectivity ratio of Kd(app) for displacement of polymer supported probe 25 binding to IRAK4 in human THP-1 cell lysates to Kd(app) for displacement of polymer supported probe 25 binding to IRAK3 in human THP-1 cell lysates

inhibition [1]: 69%
Kd [2]: 1400 nM
Kd [3]: 34 nM
Kd [4]: > 30000 nM
Activity [5]: Active
IC50 [6]: 5 nM
Kd [7]: 2800 nM
DC50 [9]: 2 nM
inhibition [10]: 82%
Activity [11]: inactive
inhibition [12]: 45%
inhibition [13]: 93%
IC50 [14]: 2300 nM
fold change (FC) [15]: -1.8
fold change (FC) [16]: -1.5
Activity [18]: inactive
inhibition [19]: 60%
Activity [20]: Active
Activity [21]: inactive
Activity [22]: inactive
Compound: CC(C)c1ccn2ncnc(N[C@H]3CC[C@@H](N4CCN(C(=O)CCC(=O)N5CCC(CCN6CCN(c7ccc8c(c7)C(=O)N(C7CCC(=O)NC7=O)C8=O)CC6)CC5)CC4)CC3)c12 (stereo partly drawn)
Selectivity ratio (THP-1 [8]): > 880
Selectivity ratio (THP-1 [17]): 41
Selectivity ratio (THP-1 [23]): 105
